For 9 molecules, melting point and IC50 results are on record in US20090163549A1, “Pharmaceutical Composition Comprising an Amide Derivative” (priority 2005, published 2009).

pIC50: −log10 of the molar value.

As a reminder, the melting point is the temperature, or range, at which the solid turns liquid. Broadly, the pIC50 is −log10 of the IC50, conventionally taken in molar units. Read a low pIC50 as a high IC50.

Data set [1] deals with T1, human TRPV1 receptors (Homo sapiens, UniProt Q8NER1).
T1 construct: expressed in transfected cells; host or cells: CHO-K1
The data set can be described thus: Inhibition of capsaicin-stimulated Ca2+ influx (Fluo-3, FDSS-3000) in CHO-K1 cells stably expressing human TRPV1 receptors. The data set is classed as cell-based. To be noted: CHO-K1 cells transfected with human TRPV1; capsaicin stimulation; Fluo-3 fluorescence. As to the method:
CHO-K1 cells were transfected with human TRPV1 receptors and a cell culture stably expressing the receptor was seeded on a medium of alpha-MEM containing FBS(10%), HEPES (20 mM), geneticin (1 mg/mL) and antibiotic-antimycotic mixed solution(1%) in 96-well plates, and incubated at 37° C. and 5% CO2 for 2-3 days.
The medium was then substituted with Lording Buffer (20 mM HEPES, 115 mM NaCl, 5.4 mM KCl 0.8 mM MgCl2, 1.8 mM CaCl2, 13.8 mM D-glucose, 2.5 mM probenecid, pH 7.4) containing Fluo-3 AM (5 μM) and incubated at 37° C. and 5% CO2 for 1 hour. The test compounds were diluted to different concentrations and added to the plates after the incubated culture was washed with Wash Buffer (20 mM HEPES, 115 mM NaCl, 5.4 mM KCl 0.8 mM MgCl2, 5.0 mM CaCl2, 13.8 mM D-glucose, 2.5 mM probenecid, 0.1% BSA, pH 7.4) and placed at room temperature for 15 minutes.
The plate was set up in Functional Drug Screening System(FDSS)-3000(Hamamatsu Photonics K.K.) and amounts of Ca^2+ influx before and after capsaicin-stimulation were measured through changes in the fluorescence intensity of Fluo-3.
An inhibitory activity was evaluated by measuring fluorescence intensity in the presence of various concentrations of the test compounds and calculating their % inhibition on the basis that the maximum fluorescence intensity is 100% inhibition when stimulated by Wash Buffer, and 0% inhibition when stimulated by capsaicin
Data analysis and calculation of IC50 values were performed with Excel(Microsoft Corporation) and XLfit(idbs).

T1 sequence (Q8NER1 whole entry): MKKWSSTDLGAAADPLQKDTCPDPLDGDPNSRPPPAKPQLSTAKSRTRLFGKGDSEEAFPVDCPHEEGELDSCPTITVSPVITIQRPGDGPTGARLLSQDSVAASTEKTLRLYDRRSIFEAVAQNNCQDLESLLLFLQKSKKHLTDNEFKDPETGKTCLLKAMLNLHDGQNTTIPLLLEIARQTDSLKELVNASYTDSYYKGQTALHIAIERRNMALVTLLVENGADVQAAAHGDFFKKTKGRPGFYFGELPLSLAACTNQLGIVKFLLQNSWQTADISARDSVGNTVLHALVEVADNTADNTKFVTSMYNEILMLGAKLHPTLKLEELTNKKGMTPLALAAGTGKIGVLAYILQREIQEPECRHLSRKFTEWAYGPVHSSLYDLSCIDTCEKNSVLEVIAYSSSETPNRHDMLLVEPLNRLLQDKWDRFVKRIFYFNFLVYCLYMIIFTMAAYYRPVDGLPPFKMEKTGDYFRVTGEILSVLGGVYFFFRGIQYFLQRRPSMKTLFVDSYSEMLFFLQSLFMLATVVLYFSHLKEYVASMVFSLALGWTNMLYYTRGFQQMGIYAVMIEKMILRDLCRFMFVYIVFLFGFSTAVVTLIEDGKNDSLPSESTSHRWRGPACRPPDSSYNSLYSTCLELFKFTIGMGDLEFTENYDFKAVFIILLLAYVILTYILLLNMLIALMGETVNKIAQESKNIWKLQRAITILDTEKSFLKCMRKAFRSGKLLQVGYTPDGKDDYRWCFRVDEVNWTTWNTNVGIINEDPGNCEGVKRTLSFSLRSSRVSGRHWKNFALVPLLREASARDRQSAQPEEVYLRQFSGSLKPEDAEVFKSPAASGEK

Molecule `CC(C)(C)c1ccc(NC(=O)c2ccc(C3(C)NCCS3)cc2)cc1` (centres unmarked) [Ib-2] returned a melting point of 152 to 153 °C. The molecule further gave a negative-log IC50 (pIC50) in data set [1] of 6.72.
For `CC(C)(C)c1ccc(NC(=O)c2ccc(C3(C)OCCO3)cc2)cc1` [Ie-2], the melting point lay within 180 to 189 °C. The molecule further showed a pIC50 in data set [1] of 6.64.
`CC(C)(C)c1ccc(NC(=O)c2ccc(C3(C)OCCCO3)cc2)cc1` [Ia-2, N-(4-tert-butylphenyl)-4-(2-methyl-1,3-dioxane-2-yl)benzamide] yielded a melting point of 148 to 149 °C. Also, the pIC50 in data set [1] is 6.53.
Turning to `CC(C)(C)c1ccc(NC(=O)c2ccc(C3(C)NCCO3)cc2)cc1` (centres unmarked) [Ic-1], the melting point is 138 to 139 °C. The pIC50 in data set [1] was 6.60.
In turn, `CC(C)(C)c1ccc(NC(=O)c2ccc(C3OCCCO3)cc2)cc1` [Ia-1] displayed a melting point of 165 to 166 °C. For the same molecule, the pIC50 in data set [1] was 6.75.
As for `CON=C(C)c1ccc(C(=O)Nc2ccc(C(C)(C)C)cc2)cc1` [Ij-4, N-(4-tert-butylphenyl)-4-(1-methoxyiminoethyl)benzamide], the melting point is 154 to 155 °C. The negative logarithm of the IC50 (pIC50) in data set [1] is 6.79.
`CC(C)(C)c1ccc(NC(=O)c2ccc(C3NOC(=O)N3)cc2)cc1` (centres unmarked) [Ih-1, N-(4-tert-butylphenyl)-4-(5-oxo-1,2,4-oxadiazolidine-3-yl)benzamide] registered a melting point of over 300 °C.
Molecule `CC(C)(C)c1ccc(NC(=O)c2ccc(C3NCCS3)cc2)cc1` (centres unmarked) [Ib-1] yielded a melting point of 119 to 120 °C. The same molecule had a pIC50 in data set [1] of 6.68.
`CC(C)(C)c1ccc(NC(=O)c2ccc(C3=NCCS3)cc2)cc1` [If-1, N-(4-tert-butylphenyl)-4-(2-thiazolinyl)benzamide] had a melting point of 176 to 177 °C. The molecule further showed a negative logarithm of the IC50 (pIC50) in data set [1] of 8.22.
